Test results taken from BindingDB's records for doi:10.1021/ja0446404 (Yale University, 2005).

molecular target: Bcl-2-like protein 1 (Homo sapiens, UniProt Q07817); assay: Fluorescence Polarization Assay; details: not given
Procedure: Fluorescence polarization experiments were conducted on a Photon Technology International instrument using a 0.3 cm path length cuvette. Spectra were measured at 25 deg C using 10.0 nm slit widths. Excitation at 495 nm was used for the fluorescein-containing peptide Fl-Bak and the emission maximum at 535 nm was monitored. Polarization measurements were recorded upon titration of inhibitors at varying concentrations into a solution of Fl-Bak and Bcl-xL.

Bcl-2-like protein 1, sequence (Q07817 whole entry): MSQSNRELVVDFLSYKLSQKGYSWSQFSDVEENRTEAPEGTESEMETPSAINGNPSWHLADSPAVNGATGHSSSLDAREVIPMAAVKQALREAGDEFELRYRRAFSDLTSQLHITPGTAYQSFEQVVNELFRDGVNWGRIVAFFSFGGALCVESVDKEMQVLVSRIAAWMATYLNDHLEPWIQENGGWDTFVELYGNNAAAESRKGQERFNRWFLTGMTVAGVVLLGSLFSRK

SMILES | Ki [µM]
CC(C)C[C@H](NC(=O)c1ccc(C(=O)N(CC(C)C)[C@H](C(=O)O)C(C)C)cc1OC(C)C)C(=O)O [terephthalamide scaffold, 47] | 450
CC(C)C[C@H](NC(=O)c1ccc(C(=O)N[C@@H](CC(C)C)C(=O)O)c(Oc2ccc3ccccc3c2)c1)C(=O)O [terephthalamide scaffold, 50] | 82.1

same assay, conditions: pH 7.4; 25 °C

SMILES | Ki [µM]
COC(=O)[C@H](Cc1ccccc1)NC(=O)c1ccc(C(=O)N(C(C)C)C(C)C)cc1OC(C)C [terephthalamide scaffold, 25] | 10.9
COc1cc(C(=O)N(C(C)C)C(C)C)ccc1C(=O)N[C@@H](CC(C)C)C(=O)O [terephthalamide scaffold, 28] | 2.31

More lines, now with the values ahead:

Ki [µM] | SMILES
7.63 | CC(C)C[C@H](NC(=O)c1ccc(C(=O)N(C(C)C)C(C)C)cc1Oc1ccc2ccccc2c1)C(=O)O [terephthalamide scaffold, 31]
13.2 | COC(=O)[C@H](CC(C)C)NC(=O)c1ccc(C(=O)N(C(C)C)C(C)C)cc1Oc1ccc([N+](=O)[O-])cc1 [terephthalamide scaffold, 32]
3.14 | COC(=O)[C@H](CC(C)C)NC(=O)c1ccc(C(=O)N(C)C)cc1OC(C)C [terephthalamide scaffold, 34]
